From patent US20240374607A1, “MEDICAMENT FOR PREVENTING AND/OR TREATING DRY EYE” (Santen Pharmaceutical Co., Ltd., priority 2021, published 2024)

Experiments:
[1] = test system: dry-eye model SD rat with exorbital lacrimal gland removed; assay: Quantity of tears by Schirmer strip in dry-eye model, Tests 3 and 4; assay type: in vivo; conditions: for Incremental difference in Schirmer's test at 0.5 hours after ocular instillation / Incremental difference in Schirmer's test at 8 hours after ocular instillation: 5 μL/eye, difference from vehicle-instilled group
Method: A somnopentyl injection five-fold diluted with physiological saline was intraperitoneally administered to a normal male SD (Sprague-Dawley) rat by 2.5 mL/kg, and the rat was given general anesthesia, followed by keeping the anesthetized state by inhalation of about 1 to 3% isoflurane. Then, the skin on each check was incised to remove the exorbital lacrimal gland, followed by suturation with a Michel suture clamp. In this test, an individual wherein reduction of tears was confirmed after 13 weeks from the removal of exorbital lacrimal gland was included as the experimental animal.
Half an hour after treatment of general anesthesia, Schirmer strip (1 mm×17 mm) was inserted to conjunctival sac of the lower eyelid of a rat, and then after 1 minute of the insertion, the wet part of the Schirmer strip was measured in increments of 0.5 mm. (N=14 or 16 eyes)
The quantity of tears was measured in a similar manner to Test 3. (N=10 eyes)
The following Tables 1 and 2 show incremental differences (mm/min) in Schirmer's test between the vehicle-instilled group and the ophthalmic-solution-instilled groups at 0.5 and 8 hours, respectively, after ocular instillation according to the results of Test 3 and Test 4. The symbol “-” in Tables 1 and 2 means not-performed.

[2] = test system: normal male cynomolgus monkeys; assay: Tear film break-up time (TBUT) after single ocular instillation, Tests 1 and 2; conditions: for Extension of TBUT: 1% (w/v) ophthalmic solution, single ocular instillation, FIG. 2
Method: TBUT measurement tests were conducted for 10 normal male cynomolgus monkeys by partial crossover design of 5 monkeys per group. The test animals were given general anesthesia by intramuscular injection with ketamine hydrochloride (Ketalar for intramuscular injection 500 mg (registered trademark), Daiichi Sankyo Company, Limited.), and then were let their eyes closed. Then, TBUT was measured before and at 15, 30, and 60 minutes after ocular instillation of a vehicle or each ophthalmic solution (20 μL/eye) to the right eye. Specifically, 1% fluorescein solution (2 μL/eye) was instilled, and the time right after opening of the eyelids until breaking of the fluorescein layer (tear film) on the cornea was measured three times under a slit lamp, followed by calculation of the average. (N=5 eyes)
TBUT was measured in a similar manner to the method of Test 1. (N=4 or 5 eyes)

[3] = test system: normal male cynomolgus monkeys; assay: Intraocular pressure test, twice daily repeated instillation, Test 5; assay type: in vivo, cynomolgus monkey; conditions: 20 μL/eye twice daily, Day 1, 7 and 14, FIG. 4
Method: Specifically, one drop of 0.4% oxybuprocaine hydrochloride ophthalmic solution (trade name: Benoxil (registered trademark) ophthalmic solution 0.4%) was instilled to the right eye so as to provide surface anesthesia, and then the intraocular pressure was measured three times with Mentor tonometer (applanation), followed by calculation of the average. (N=6 eyes)

[4] = test system: dry-eye model rat whose exorbital lacrimal gland is excised; assay: Tear film break-up time in dry-eye model rat, Test 6; assay type: in vivo; conditions: concentration of 0.00001% or more, 5 μL/eye, 0.5 and 2 hours after ocular instillation; FIG. 5
Source text: A male SD rat was given general anesthesia, the skin on each […] cheek was incised under the anesthetized state, and then the exorbital lacrimal gland was excised to prepare a dry-eye model rat whose exorbital lacrimal gland is excised.
Untreated normal rats were assigned to an untreated group, and dry-eye model rats whose exorbital lacrimal gland is excised were assigned to a vehicle group and each ophthalmic solution group, each group consisting of 6 rats. For each group, TBUT measurement tests were conducted.

Compound	Incremental difference in Schirmer's test at 0.5 hours after ocular instillation ([1]; 0.001% ophthalmic solution) [mm/min]	Incremental difference in Schirmer's test at 8 hours after ocular instillation ([1]; 0.001% ophthalmic solution, 8 hours) [mm/min]	Incremental difference in Schirmer's test at 0.5 hours after ocular instillation ([1]; 0.01% ophthalmic solution) [mm/min]	Incremental difference in Schirmer's test at 8 hours after ocular instillation ([1]; 0.01% ophthalmic solution, 8 hours) [mm/min]	Incremental difference in Schirmer's test at 0.5 hours after ocular instillation ([1]; 0.1% ophthalmic solution) [mm/min]	Incremental difference in Schirmer's test at 8 hours after ocular instillation ([1]; 0.1% ophthalmic solution, 8 hours) [mm/min]	Incremental difference in Schirmer's test at 0.5 hours after ocular instillation ([1]; 1% ophthalmic solution) [mm/min]	Incremental difference in Schirmer's test at 8 hours after ocular instillation ([1]; 1% ophthalmic solution, 8 hours) [mm/min]	Extension of TBUT [2]	Lacrimal secretion at 8 hours after ocular instillation ([1]; 0.0001 to 0.01% instilled groups, 8 hours, FIG. 3)	Tear volumes at 16 hours after ocular instillation ([1]; 0.001 and 0.01% instilled groups, 16 hours, FIG. 3)	Lacrimal secretion ([1]; olodaterol-instilled groups 0.00001 to 0.01%, FIG. 3)	Effect on intraocular pressure ([3]; 0.01% ophthalmic solution)	Effect on intraocular pressure ([3]; 0.1% ophthalmic solution)	TBUT-extending effect [4]	TBUT-extending effect ([2]; 0.0001, 0.001, 0.01% (w/v), single ocular instillation 20 μL/eye, 15, 30, 60 minutes, FIG. 1)
CC(Cc1ccc(O)cc1)NCC(O)c1cc(O)cc(O)c1 (centres unmarked) [fenoterol]	1.8	0.0	4.8	0.2	6.1	0.9	3.6	1.1	not confirmed	–	–	–	–	–	–	–
CC(C)(C)NCC(O)c1cc(Cl)c(N)c(Cl)c1 (centres unmarked) [clenbuterol]	–	–	–	–	–	–	–	–	not confirmed	–	–	–	–	–	–	–
COc1ccc(CC(C)(C)NC[C@H](O)c2cc(O)cc3c2OCC(=O)N3)cc1 [olodaterol, 6-hydroxy-8-((1R)-1-hydroxy-2-{[2-(4-methoxyphenyl)-1,1-dimethylethyl]amino}&shy;ethyl)-2H-1,4-benzoxazin-3-(4H)-one]	–	–	–	–	–	–	–	–	–	highly enhanced	increase of tear volumes was observed	lacrimal secretion was enhanced	did not show increase and/or decrease the intraocular pressure	did not show increase and/or decrease the intraocular pressure	TBUT-extending effect was confirmed	confirmed in a concentration-dependent manner
